Source: patent EP4527828A1, “BIPHENYL COMPOUND, PHARMACEUTICAL COMPOSITION, METHOD FOR PREPARING SAME, AND USE THEREOF” (Longivitron (Suzhou) Biotechnology Co., Ltd, priority 2022, dated 2023)
Like-named read-outs stand apart in the source and are kept apart here.

Key:
LAG3/FGL1 = biological target: T1, LAG3/FGL1 (Homo sapiens, UniProt P18627); assay: HTRF binding inhibition of LAG3 and its ligand FGL1; settings: Table 2; read-out: IC50 value for inhibiting LAG3/FGL1 interaction
T1 sequence (P18627 23-450 limits assumed): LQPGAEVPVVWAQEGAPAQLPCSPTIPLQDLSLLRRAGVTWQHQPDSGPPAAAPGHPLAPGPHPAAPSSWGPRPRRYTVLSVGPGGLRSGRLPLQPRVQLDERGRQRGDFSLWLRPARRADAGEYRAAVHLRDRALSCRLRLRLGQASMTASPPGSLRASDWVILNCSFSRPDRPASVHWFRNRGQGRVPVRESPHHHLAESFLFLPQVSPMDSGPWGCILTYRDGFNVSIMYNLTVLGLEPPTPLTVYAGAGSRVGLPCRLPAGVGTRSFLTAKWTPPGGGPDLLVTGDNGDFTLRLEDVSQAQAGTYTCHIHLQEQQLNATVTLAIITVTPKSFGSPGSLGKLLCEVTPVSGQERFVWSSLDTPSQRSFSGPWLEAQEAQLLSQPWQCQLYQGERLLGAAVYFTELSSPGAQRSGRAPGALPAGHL
Method: Reagent preparation: ① Tag1-LAG3 protein: a protein solution with a concentration of 50 nM (20 µL with a final system concentration of 10 nM) was prepared using a diluent. ② Tag2-FGL1 protein: a protein solution with a concentration of 100 nM (20 µL with a final system concentration of 20 nM) was prepared using a diluent. ③ Anti-Tag1-Tb: a 100× stock solution was diluted with a detection buffer to a 1 × stock solution. ④ Anti-Tag2-XL665: a 100× stock solution was diluted with a detection buffer to a 1 × stock solution.
Assay step: (1) 2 µL of compound solution (with a concentration to be measured of 10×) was added to a 384-well opaque plate having a white background, 4 µL of Tag1-LAG3 protein and 4 µL of Tag2-FGL1 protein were added, respectively, and the plate was incubated at room temperature for 15 min; (2) Anti-Tag1-Tb and Anti-Tag2-XL665 were mixed at a ratio of 1:1 in advance, and 10 µL of mix solution was added to each well; (3) the plate was gently mixed, sealed, and incubated at room temperature for 1 h or overnight before detection.

mouse melanoma B16F10 [1] = type: in vivo
Method: (§1) (1) 43 8-week-old female C57B/L mice were selected and divided into 5 cages. One preserved B16F10 tumor-bearing female C57L mouse was sacrificed by cervical dislocation. 75% alcohol was sprayed on the skin of the mouse in a laminar flow cabinet, and the tumor tissue of the tumor-bearing mouse was separated by sterilized surgical instruments and cut into a sterilized 5 mL homogenizer with ophthalmic scissors. The tumor tissue was slowly milled on ice to form a tumor fluid. The number of cells was 6.85 × 10^7 cells/mL as counted with a BioRad counting instrument. The tumor fluid was placed in an Erlenmeyer flask in an ice bath for later use. The tumor fluid was evenly aspirated using a 1 mL sterile syringe and inoculated 0.2 mL/C57/L mouse. After the inoculation was completed, the mice continued to be fed under the initial feeding conditions.
(§2) (4) The animals were sacrificed, and the tumors were separated and weighed. The animals in each group were treated immediately 1 h after administration on the last day and weighed, and the tumor tissue was weighed.
Animal grouping and administration: On the second day after tumor fluid inoculation of C57B/L mice, tumor-bearing mice were randomly grouped: a control group, a Compound 8-5 mg/kg group, a Compound 8-10 mg/kg group, a Compound 8-20 mg/kg group, and a positive control drug cyclophosphamide CTX-100 mg/kg group. The animals were weighed and administered daily. The drugs to be tested were administered orally daily, and the positive control drug CTX was administered intraperitoneally once. After the experiment was completed, the body weights and tumor weights of the animals were weighed, and the tumor weight inhibition rate (%) was calculated.

mouse melanoma B16F10 [2] = type: in vivo; settings: 15 days
Method: as §1
(2) Animal grouping and administration: On the second day after tumor fluid inoculation of C57B/L mice, 43 mice were randomly grouped: 10 mice in a control group, 8 mice in a Compound 4-20 mg/kg group, 8 mice in a Compound 4-30 mg/kg group, 8 mice in a Compound 4-40 mg/kg group, and 9 mice in a positive control drug cyclophosphamide CTX-100 mg/kg group. The mice were weighed and administered.
(3) Drug preparation: The corresponding amounts of the drugs were weighed according to the final concentrations of the experimental groups. The drugs of the Compound 4-20 mg/kg group and the Compound 4-30 mg/kg group were prepared with 0.25% CMCNa + Tween 80 and administered orally once a day. The drug of Compound 4-40 mg/kg was prepared with normal saline + Tween 80 and administered intraperitoneally. CTX was prepared with normal saline and administered intraperitoneally once. The mice in the control group were given 0.25% CMCNa solution orally.
as §2

[3] = B16F10, 40 mg/kg, table prints po, text says intraperitoneally

| Compound | IC50 (LAG3/FGL1) | Inhibition rate (mouse melanoma B16F10 [1]; B16F10, 5 mg/kg orally daily) | Tumor weight (mouse melanoma B16F10 [1]; B16F10, 5 mg/kg orally daily) | Inhibition rate (mouse melanoma B16F10 [1]; B16F10, 10 mg/kg orally daily) | Tumor weight (mouse melanoma B16F10 [1]; B16F10, 10 mg/kg orally daily) | Inhibition rate (mouse melanoma B16F10 [1]; B16F10, 20 mg/kg orally daily) | Tumor weight (mouse melanoma B16F10 [1]; B16F10, 20 mg/kg orally daily) | Inhibition rate (mouse melanoma B16F10 [2]; B16F10, 20 mg/kg po once a day) | Tumor weight (mouse melanoma B16F10 [2]; B16F10, 20 mg/kg po once a day) | Inhibition rate (mouse melanoma B16F10 [2]; B16F10, 30 mg/kg po once a day) | Tumor weight (mouse melanoma B16F10 [2]; B16F10, 30 mg/kg po once a day) | Inhibition rate (mouse melanoma B16F10 [2]; [3]) | Tumor weight (mouse melanoma B16F10 [2]; [3]) |
| --- | --- | --- | --- | --- | --- | --- | --- | --- | --- | --- | --- | --- | --- |
| CCCCCCOc1ccc(C(=O)O)cc1-c1cc(C(=O)NCCCCNC(=O)C(F)(F)F)ccc1OCCCCCC [Compound 8] | 10 µM | 16.94% | 1.50 ± 0.27 g | 19.78% | 1.45 ± 0.70 g | 53.64% | 0.80 ± 0.46 g | – | – | – | – | – | – |
| CCCCCCOc1ccc2cc1-c1cc(ccc1OCCCCCC)C(=O)CCCCCC2=O [Compound 4] | – | – | – | – | – | – | – | 55.12% | 1.304 ± 0.623 g | 28.00% | 2.091 ± 1.199 g | 44.40% | 1.615 ± 0.495 g |
